Results published in patent publication US12084415B2, “Biomolecule-polymer-pharmaceutical agent conjugates for delivering the pharmaceutical agent” (Massachusetts Institute of Technology, priority 2021, dated 2024).

Test system: BT474 xenograft tumor
Test: Antitumor efficacy in BT474 xenograft tumor model
Conditions: for tumor volume at day 30: 3 doses
[1] = PROTAC (ARV771) payload, 3 doses once a week

Procedure: The antitumor efficacy was monitored thorough the measurement of tumor volume size.
We used the ABC platform for antibody targeted delivery of PROTAC to tumors for cancer therapy. We chose ARV771 as the payload. We used PROTAC-ABC (ABC_ARV771) to perform in vivo anti-cancer study. The HER2 overexpressed BT474 xenograft mice model was also used for this study. 6 different treatments were performed on mice bearing ˜50 mm^3 volume tumor. 3 doses for treatment were performed once a week.

Row | Compound | tumor volume at day 30 (PROTAC (ARV771) payload) | tumor volume [1] | tumor volume (one dose injection, comparison with Kadcyla)
1 | Cc1ncsc1-c1ccc([C@H](C)NC(=O)[C@@H]2C[C@@H](O)CN2C(=O)[C@@H](NC(=O)COCCCOCCNC(=O)C[C@@H]2N=C(c3ccc(Cl)cc3)c3c(sc(C)c3C)-n3c(C)nnc32)C(C)(C)C)cc1 [ARV771] | no therapeutic effects | little therapeutic effects | –
2 | Cc1sc2c(c1C)C(c1ccc(Cl)cc1)=N[C@@H](CC(=O)Nc1ccc(OCCOCCOCCOCCNc3cccc4c3C(=O)N(C3CCC(=O)NC3=O)C4=O)cc1)c1nnc(C)n1-2 (some centres unmarked) [ARV825] | no therapeutic effects | little therapeutic effects | –
3 | ado-trastuzumab emtansine [ADC] | – | – | good anticancer efficiency
